{
  "source": "paper PMC5908784",
  "about": "“Extracellular loops 2 and 3 of the calcitonin receptor selectively modify agonist binding and efficacy” (Biochemical Pharmacology, 2018)",
  "key": {"[1]": {"biological_target": "T1, hCTR I300A (Homo sapiens, UniProt P30988, I300A)", "T1 construct": "c-Myc (N); expressed in transfected cells", "T1 sequence (P30988 25-474 I300A)": "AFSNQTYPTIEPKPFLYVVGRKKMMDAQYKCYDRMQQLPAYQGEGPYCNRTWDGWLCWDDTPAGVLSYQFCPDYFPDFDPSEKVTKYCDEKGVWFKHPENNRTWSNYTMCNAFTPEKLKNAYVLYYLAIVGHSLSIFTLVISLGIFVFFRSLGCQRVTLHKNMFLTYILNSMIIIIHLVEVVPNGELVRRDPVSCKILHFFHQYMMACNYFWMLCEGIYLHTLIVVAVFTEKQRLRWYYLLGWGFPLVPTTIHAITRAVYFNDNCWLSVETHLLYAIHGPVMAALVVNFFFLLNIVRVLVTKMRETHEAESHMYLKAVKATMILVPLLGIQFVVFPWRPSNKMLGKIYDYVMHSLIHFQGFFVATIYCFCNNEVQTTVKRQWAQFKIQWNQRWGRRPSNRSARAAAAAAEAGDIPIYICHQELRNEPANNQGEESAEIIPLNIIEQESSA", "assay": "IP1 accumulation", "type": "cell-based", "conditions": "IP1 maximal response, mean ± S.E.M., SEM", "how_it_was_run": "(§1)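 Ligand-induced IP1 (60 min, LiCl) measured by HTRF; normalized to 100 μM ATP response.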"}, "[2]": {"biological_target": "T2, hCTR C289A (Homo sapiens, UniProt P30988, C289A)", "T2 construct": "c-Myc (N); expressed in transfected cells", "T2 sequence (P30988 25-474 C289A)": "T1 sequence (P30988 25-474 I300A) with C265A, A276I", "assay": "IP1 accumulation", "type": "cell-based", "conditions": "IP1 maximal response, mean ± S.E.M., SEM", "how_it_was_run": "as §1"}, "[3]": {"biological_target": "T3, hCTR F285A (Homo sapiens, UniProt P30988, F285A)", "T3 construct": "expressed in transfected cells", "T3 sequence (P30988 25-474 F285A)": "T1 sequence (P30988 25-474 I300A) with F261A, A276I", "assay": "Heterologous whole cell competition binding", "conditions": "heterologous competition of 125I-sCT(8-32), whole cells, mean ± S.E.M., SEM", "procedure": "(§2) Following overnight incubation non-bound ligand was removed and radioactivity was determined using a gamma counter.\n(§3) Data were corrected for radioligand occupancy using the Cheng-Prusoff equation in Prism; as such data are reported as pKi. Emax and EC50 were estimated from concentration-response curves using with a 3-parameter logistic equation in Prism (v7). These values are a composite of functional affinity, efficacy and stimulus response coupling. […] Significance was accepted at P < 0.05."}, "[4]": {"biological_target": "T4, hCTR WT (Homo sapiens, UniProt P30988)", "T4 construct": "expressed in transfected cells", "T4 sequence (P30988 25-474)": "T1 sequence (P30988 25-474 I300A) with A276I", "assay": "Heterologous whole cell competition binding", "conditions": "heterologous competition of 125I-sCT(8-32), whole cells, mean ± S.E.M., SEM", "procedure": "as §2, §3"}, "[5]": {"biological_target": "T5, hCTR D373A (Homo sapiens, UniProt P30988, D373A)", "T5 construct": "c-Myc (N); expressed in transfected cells", "T5 sequence (P30988 25-474 D373A)": "T1 sequence (P30988 25-474 I300A) with A276I, D349A", "assay": "Heterologous whole cell competition binding", "conditions": "heterologous competition of 125I-sCT(8-32), whole cells, mean ± S.E.M., SEM", "procedure": "as §2, §3"}},
  "note": "Substitutions are numbered along the chain they refer to. Where a SMILES comes first, the peptide text is derived from it. Bridges are numbered along the chain shown (N, C = ends).",
  "data": [
    {"smiles": "CC[C@H](C)[C@H](NC(=O)[C@H](C)NC(=O)[C@@H](NC(=O)[C@H](CCC(N)=O)NC(=O)[C@@H]1CCCN1C(=O)[C@H](Cc1ccccc1)NC(=O)[C@@H](NC(=O)[C@H](Cc1c[nH]cn1)NC(=O)[C@H](Cc1ccccc1)NC(=O)[C@H](CCCCN)NC(=O)[C@H](CC(N)=O)NC(=O)[C@H](Cc1ccccc1)NC(=O)[C@H](CC(=O)O)NC(=O)[C@H](CCC(N)=O)NC(=O)[C@@H](NC(=O)[C@H](Cc1ccc(O)cc1)NC(=O)[C@@H](NC(=O)CNC(=O)[C@H](CC(C)C)NC(=O)[C@H](CCSC)NC(=O)[C@@H]1CSSC[C@H](N)C(=O)NCC(=O)N[C@@H](CC(N)=O)C(=O)N[C@@H](CC(C)C)C(=O)N[C@@H](CO)C(=O)N[C@@H]([C@@H](C)O)C(=O)N1)[C@@H](C)O)[C@@H](C)O)[C@@H](C)O)[C@@H](C)O)C(=O)NCC(=O)N[C@H](C(=O)NCC(=O)N[C@@H](C)C(=O)N1CCC[C@H]1C(N)=O)C(C)C", "note": "[hCT]", "values": [
      {"measurement": "Emax", "setting": "[1]", "value": "44 ± 4", "unit": "%"}
    ]},
    {"smiles": "CC(C)C[C@H](NC(=O)[C@H](CCCCN)NC(=O)CNC(=O)[C@H](CC(C)C)NC(=O)[C@@H](NC(=O)[C@@H]1CSSC[C@H](N)C(=O)N[C@@H](CO)C(=O)N[C@@H](CC(N)=O)C(=O)N[C@@H](CC(C)C)C(=O)N[C@@H](CO)C(=O)N[C@@H]([C@@H](C)O)C(=O)N1)C(C)C)C(=O)N[C@@H](CO)C(=O)N[C@@H](CCC(N)=O)C(=O)N[C@@H](CCC(=O)O)C(=O)N[C@@H](CC(C)C)C(=O)N[C@@H](Cc1c[nH]cn1)C(=O)N[C@@H](CCCCN)C(=O)N[C@@H](CC(C)C)C(=O)N[C@@H](CCC(N)=O)C(=O)N[C@H](C(=O)N[C@@H](Cc1ccc(O)cc1)C(=O)N1CCC[C@H]1C(=O)N[C@@H](CCCNC(=N)N)C(=O)N[C@H](C(=O)N[C@@H](CC(N)=O)C(=O)N[C@H](C(=O)NCC(=O)N[C@@H](CO)C(=O)NCC(=O)N[C@H](C(=O)N1CCC[C@H]1C(N)=O)[C@@H](C)O)[C@@H](C)O)[C@@H](C)O)[C@@H](C)O", "note": "[sCT]", "values": [
      {"measurement": "Emax", "setting": "[2]", "value": "42 ± 4", "unit": "%"}
    ]},
    {"smiles": "CSCC[C@H](NC(=O)CNC(=O)[C@H](CO)NC(=O)[C@H](Cc1ccccc1)NC(=O)[C@H](CCCNC(=N)N)NC(=O)[C@H](Cc1c[nH]cn1)NC(=O)[C@H](Cc1ccccc1)NC(=O)[C@H](CC(N)=O)NC(=O)[C@H](CC(N)=O)NC(=O)[C@H](CC(C)C)NC(=O)[C@H](CC(N)=O)NC(=O)[C@H](CCCNC(=N)N)NC(=O)[C@H](Cc1c[nH]c2ccccc12)NC(=O)[C@H](Cc1ccc(O)cc1)NC(=O)[C@H](C)NC(=O)[C@H](CO)NC(=O)[C@H](CC(C)C)NC(=O)[C@@H](NC(=O)[C@@H]1CSSC[C@H](N)C(=O)N[C@@H](CO)C(=O)N[C@@H](CC(N)=O)C(=O)N[C@@H](CC(C)C)C(=O)N[C@@H](CO)C(=O)N[C@@H]([C@@H](C)O)C(=O)N1)C(C)C)C(=O)NCC(=O)N[C@@H](Cc1ccccc1)C(=O)NCC(=O)N1CCC[C@H]1C(=O)N[C@@H](CCC(=O)O)C(=O)N[C@H](C(=O)N1CCC[C@H]1C(N)=O)[C@@H](C)O", "note": "[pCT] (H-CSNLSTCVLSAYWRNLNNFHRFSGMGFGPETP-NH2; disulfide 1-7)", "values": [
      {"measurement": "Ki", "setting": "[3]", "value": 12, "unit": "nM"},
      {"measurement": "Ki", "setting": "[4]", "value": 5.37, "unit": "nM"},
      {"measurement": "Ki", "setting": "[5]", "value": 17.4, "unit": "nM"}
    ]}
  ]
}
